Measured values: patent publication US9290529B2, “Carbonic anhydrase inhibitors and method of their production” (USTAV ORGANICKE CHEMIE A BIOCHEMIE AKADEMIE VED CESKE …, priority 2011, dated 2016)
Read-outs that look alike come from different tables or passages of the source.

Key:
K562 = assay: MTT cytotoxicity assay, K562; type: cell-based, human; details: 72 h
Description: (§1) One of the parameters used as the basis for colorimetric assays is the metabolic activity of viable cells. For example, a microtiter assay which uses the tetrazolium salt MTT is now widely used to quantitate cell proliferation and cytotoxicity (Hájduch et al., Cytotechnology, 19, 1996, 243-245). For instance, this assay is used in drug screening programs and in chemosensitivity testing. Because tetrazolium salts are cleaved only by metabolically active cells, these assays exclusively detect viable cells. In the case of the MTT assay, yellow soluble tetrazolium salt is reduced to a coloured water-insoluble formazan salt. After it is solubilized, the formazan formed can easily and rapidly be quantified in a conventional ELISA plate reader at 570 nm (maximum absorbancy). The quantity of reduced formazan corresponds to the number of vital cells in the culture.
All cells were purchased from the […] (ATCC), unless otherwise indicated: the CEM line are highly chemosensitive T-lymphoblastic leukemia cells, K562 cells were derived from patient with […] with bcr-abl translocation, A549 line is lung adenocarcinoma, HCT116 is colorectal tumor cell line and its p53 gene knock-down counterpart (HCT116p53−) is a model of human cancers with p53 mutation frequently associated with poor prognosis. The daunorubicin resistant subline of CEM cells (CEM-DNR bulk) and paclitaxel resistant subline K562-tax were selected in our laboratory by the cultivation of maternal cell lines in increasing concentrations of daunorubicine or paclitaxel, respectively (Noskova et al., Neoplasma 49, 2002, 418). The CEM-DNR bulk cells overexpress MRP-1 protein, while K562-tax cells overexpress P-glycoprotein, both proteins belong to family of ABC transporters and are involved in primary and/or acquired multidrug resistance phenomenon (Noskova et al., Neoplasma 49, 2002, 418). The cells were maintained in Nunc/Corning 80 cm^2 plastic tissue culture flasks and cultured in cell culture medium (DMEM/RPMI 1640 with 5 g/l glucose, 2 mM glutamine, 100 U/ml penicillin, 100 μg/ml streptomycin, 10% fetal calf serum, and NaHCO3).
(§2) This assay was performed according to Hajduch et al., Anti-Cancer Drugs 10, 1997, 1007. Cell suspensions were prepared and diluted according to the particular cell type and the expected target cell density (2 500-30 000 cells/well based on cell growth characteristics). Cells were added by pipette (80 μl) into 96-well microtiter plates. Inoculates were allowed a pre-incubation period of 24 h at 37° C. and 5% CO2 for stabilization. Four-fold dilutions, in 20-μl aliquots, of the intended test concentration were added to the microtiter plate wells at time zero. All test compound concentrations were examined in duplicate. Incubation of the cells with the test compounds lasted for 72 h at 37° C., in a 5% CO2 atmosphere at 100% humidity. At the end of the incubation period, the cells were assayed using MTT. Aliquots (10 μl) of the MTT stock solution were pipetted into each well and incubated for a further 1-4 h. After this incubation period the formazan produced was dissolved by the addition of 100 μl/well of 10% aq SDS (pH=5.5), followed by a further incubation at 37° C. overnight. The optical density (OD) was measured at 540 nm with a Labsystem iEMS Reader MF. Tumor cell survival (TCS) was calculated using the following equation: TCS=(ODdrug-exposed well/mean ODcontrol wells)×100%. The TCS50 value, the drug concentration lethal to 50% of the tumor cells, was calculated from appropriate dose-response curves.

MRC-5 = assay: MTT cytotoxicity assay, MRC-5; type: cell-based; details: MRC-5, MTT, 72 h
Description: as §1, §2

[1] = target: T1, human carbonic anhydrase II (hCA II) (Homo sapiens, UniProt P00918); assay: Colorimetric carbonic anhydrase inhibition assay (CO2 hydration, phenol red), hCA II; type: biochemical; details: 0° C., HEPES pH 7.0
T1 construct: purchased Sigma Aldrich C6165
Protocol: (§3) The compounds were assayed for inhibition activity of two isoforms of human carbonic anhydrase: hCA II and hCA IX. The human carbonic anhydrase II (HCA II) was purchased from Sigma Aldrich (Cat. No. C6165) in the form of lyophilized protein, which was dissolved before use in 10 mmol·l^−1 HEPES pH 7.0 to a concentration of 300 μmol·l^−1 and further diluted as required. Human carbonic anhydrase IX (HCA IX) was prepared by recombinant expression system in insect (Drosophila expression system, Invitrogen). […] This protein was further purified from media by chelating chromatography carrier His-Select Nickel Affinity Gel (Sigma, Cat No. P6611) and gel chromatography (Superdex 200 GL 30/300, GE Healthcare) according to the manufacturer's recommendations.
(§4) The principle of the method is based on measuring the rate of acidification of the solution that is observed as the color-shift of the acid-base-indicator (fenol red). The reaction was conducted in a glass tube placed in an ice bath (0° C., all stock solutions and enzymes were kept at the same temperature). […] This was followed by a CO2 saturation (stream flow 50 ml/min.) using a needle (18 G) up to color transition of fenol-red from red to yellow (typically 60 seconds by default). […] End point of reaction was determined by visual comparison with reference tube containing acid-base indicator (0.01% (wt./vol.) Fenol-red) and the pH adjusted to 7.0. […] Molar activity was calculated according to the formula:
(§5) [formula] where tB is the time of negative control without enzyme and tS is the time measured with an enzyme sample (and inhibitor), nprot is the number of moles of protein present in the sample. The value of IC50 for the inhibitor concentration corresponds inhibitor contraction required to decrease the specific activity to half of the value of non-inhibited enzyme. Selectivity towards CA IX inhibitor was calculated as the ratio of IC50 values for inhibition of HCA II against the value of IC50 for inhibition CA IX enzyme.

[2] = target: T2, human carbonic anhydrase IX (hCA IX) (Homo sapiens, UniProt Q16790); assay: Colorimetric carbonic anhydrase inhibition assay (CO2 hydration, phenol red), hCA IX; type: biochemical; details: for Selectivity to hCA IX IC50 (hCA II)/IC50 (hCA IX): ratio of IC50 values
T2 construct: Construct contained the extracellular CA domain (amino acid residues 139-390) cloned into the pMT/BiP/V5-His vector; His tag (from vector pMT/BiP/V5-His) (C); BiP secretion signal (from vector pMT/BiP/V5-His) (N); made in house; host or cells: Drosophila expression system (Invitrogen), insect cells, secreted into SF 900 II medium
Protocol: as §3, §4, §5

NMRI female mice = assay: Dose finding study (MTD, DLT), single intraperitoneal dose; details: for dose limiting toxicity (DLT): mouse, in vivo, ip; for maximum tolerated dose (MTD): single dose, intraperitoneally, NMRI female mice
Protocol: Both compounds were dissolved in 10% dimethylsulfoxide/water (vol/vol) at stock concentration of 10 mg/ml and applied intraperitoneally to NMRI female mice (minimum 3/group) in ascending doses until the MTD was reached. Animals were housed in specific pathogen free conditions, water and food ad libitum.

[3] = Orientational pharmacokinetics, serum concentrations by HPLC; details: intraperitoneally at the MTD, female NMRI mice
Protocol: The ability of compounds to achieve therapeutically relevant concentrations in biological fluids was tested in orientational pharmacokinetics experiment. […] The blood was collected on ice and processed for serum separation within 60 minutes after sampling. Serum was evaporated to dryness on a device ThermoScientific SPD SpeedVac (72 h, 50° C.) until analyzed. Residues were precipitated by the 225 μl of acetonitrile with an addition of 25 μl of 10% SDS (w/w in water), then vortexed for 5 min and centrifuged 5 min at 14000 RPM at a room temperature. Aliquot of the supernatant was transferred into a 250 μl autosampler vial. […] Sensitivity range 0.2 or 0.02 A.U.F.S. (Absorbance Units Full Scale). An Ion-pair reverse phase chromatographic method with an isocratic elution 300 μl/min was used. Sample injection: 20 μl.

[4] = 0° C., HEPES pH 7.0, recombinant extracellular CA domain, read-out: IC50 (hCA IX)
[5] = reference value in legend of FIG. 34, read-out: IC 50 CAIX (figure legend)

| Substance | IC50 (K562) | IC50 (MRC-5) | IC50 [1] | IC50 [2, 4] | Selectivity to hCA IX IC50 (hCA II)/IC50 (hCA IX) [2] | dose limiting toxicity (DLT) (NMRI female mice) | maximum tolerated dose (MTD) (NMRI female mice) | T1/2 [3] | pharmacokinetics under in vivo conditions [3] | IC50 [2, 5] |
| --- | --- | --- | --- | --- | --- | --- | --- | --- | --- | --- |
| 1-methylenesulfamide-1,7-dicarba-closo-dodecaborane [CB-19] | 81 ± 3.3 µM | ≥ 100 µM | 8.9 µM | 2 µM | 4.45 | – | – | – | – | – |
| 1-methylenesulfamide-3,3′-commo-bis(1,2-dicarba-3-cobalta(III)-closo-dodecabor)ate (1-) [CB-5] | – | 93.2 ± 7 µM | 3.7 µM | 0.04 µM | 92.5 | – | – | – | – | – |
| 1-methylenesulfamide-9-phenyl-1,2-dicarba-closo-dodecaborane and 1-methylene-sulfamide-12-phenyl-1,2-dicarba-closo-dodecaborane [CB-8] | 71.3 ± 4.2 µM | ≥ 100 µM | 2.44 µM | 0.37 µM | 6.59 | – | – | – | – | – |
| 1-methylensulfamide-1,2-dicarba-closo-dodekaborane [CB-1] | 60.1 ± 3 µM | 22.1 ± 1.1 µM | 2.4 µM | 0.37 µM | – | – | – | – | – | – |
| 1-sulfamide-closo-1-carbadodecaborate (1-) [CB-3] | ≥ 100 µM | ≥ 100 µM | – | 3.6 µM | – | – | – | – | – | – |
| 7-methylensulfamide-8-phenyl-(7,8-nido-dikarbaundekabor)ate (1-) [CB-6] | 27.5 ± 7.1 µM | – | 39.1 µM | 1.08 µM | 36.2 | – | – | – | – | – |
| 7-methylensulfamide-(7,8-nido-dicarbaundekaborate) (1-) [CB-2] | ≥ 100 µM | ≥ 100 µM | 4.6 µM | 2.6 µM | – | – | – | – | – | – |
| 8-butyloxysulfamide-3,3′-commo-bis(decahydro-1,2-dicarba-3-cobalta(III)-closo-dodekabor)ate (1-) [CB-16] | – | ≥ 100 µM | 0.68 µM | 0.28 µM | 2.43 | somnolence, apathy and local irritation | 166 mg/kg | 5 h | linear pharmacokinetics | 0.28 µM |
| 8-diethyleneoxysulfamide-3,3′-commo-bis(decahydro-1,2-dicarba-3-cobalta(III)-closo-dodekabor)ate (1-) [CB-17] | ≥ 100 µM | ≥ 100 µM | 12 µM | 0.35 µM | 34.3 | – | – | – | – | – |
| 8-ethylaminomethylsulfamide-8″-methoxy-3,3′-commo-bis(decahydro-1,2-dicarba-3-cobalta(III)-closo-dodecabor)ate (1-) [CB-15] | 17.7 ± 0.7 µM | 27 ± 4.8 µM | 14 µM | 2 µM | 7.00 | – | – | – | – | – |
| 8-methylensulfamide-8″-methoxy-3,3′-commo-bis(1,2-dicarba-3-cobalta(III)-closo-dodecabor)ate (1-) [CB-4] | 74.3 ± 3.7 µM | 77.9 ± 1 µM | 5 µM | 0.05 µM | 100 | somnolence, apathy and local irritation | 125 mg/kg | 6.5 h | linear pharmacokinetics | 0.05 µM |
| 8-propylenesulfamide-7-phenyl-(7,8-nido-dicarbaundecabor)ate (1-) [CB-13] | 71.8 ± 1.4 µM | 75.6 ± 1.5 µM | 4 µM | 0.08 µM | 48.8 | – | – | – | – | – |
| 9-sulfamide-9′-amine-2,2′-commo-bis(1,7,9-trikarba-2-ferra(II)-kloso-dodekabor)ane [CB-12] | ≥ 100 µM | ≥ 100 µM | 14.9 µM | 1.49 µM | 10.0 | – | – | – | – | – |
| 10-sulfamide-9′-amine-2,2′-commo-(1,7,10-tricarba-1′,7′,9′-tricarba-2-ferra (II)-closo-dodekabor)ane [CB-10] | – | ≥ 100 µM | 67.9 µM | 9.68 µM | 7.0 | – | – | – | – | – |
| Di(methylenesulfamide)-1,7-dicarba-closo-dodecaborane [CB-20] | – | ≥ 100 µM | 1.6 µM | 0.49 µM | 3.27 | – | – | – | – | – |
